Assay results from patent US6113896A, “Pharmaceutical compositions containing ecotin and homologs thereof” (priority 1994, dated 2000).
“Also recorded” adds a separate entry of the source.

What was measured:
FXa [1] = experiment: Specificity assay, FXa; type: biochemical, human; settings: 100 nM inhibitor, ~1 h, 1.2 nM enzyme
Experimental: (§1) Specificity Assays The following assays were used to test the specificity of ecotin and the M84K and M84R mutants against various proteases. Ecotin, M84K, M84R (100 nM each), or a control blank were incubated at room temperature for ~1 h with each enzyme. The enzymes tested (enzyme concentration, buffer, substrate) were FXa (1.2 nM, Buffer A, 0.7 mM Spectrozyme fXa), thrombin (3.7 nM, Buffer A, 0.7 mM S2366), TF.cndot.FVIIa (12.0 nM, Buffer B, 0.7 mM S2366), FXIa (1.2 nM, Buffer A containing 1 mg/ml BSA, 0.7 mM S2366), activated protein C (4.3 nM, Buffer A, 0.7 mM S2366), plasmin (15 nM, Buffer A, 1 mM S2251), single chain t-PA (15 nM, Buffer A, 2.5 mM S2288), Factor XIIa (10 nM, Buffer A, 0.5 mM S2302, plasma kallikrein (10 nM, Buffer A, 0.5 mM S2302), HLE (17 nM, 0.1 M Tris, pH 7.5, 0.5 M NaCl and 0.005 % Triton X-100, 0.42 mM MeOSuc-AAPV-pNA) (SEQ ID NO:9), bovine trypsin (10 nM, Buffer A, 0.25 mM Spectrozyme fXa), and bovine chymotrypsin (10 nM, Buffer A, 1 mM Suc-AAPF-pNA) (SEQ ID NO:10). Buffer A contains 50 mM Tris, pH 7.5, 100 mM NaCl, 2 mM CaCl2 and 0.005% Triton X-100. Buffer B contains 50 mM Tris, pH 7.5, 100 mM NaCl, 10 mM CaCl2, 0.5% BSA, 60 nM TF1-243,and 1 mM CHAPS. The initial change in absorbance at 405 nm was monitored after addition of substrate. Controls lacking inhibitor and/or enzyme were also assayed to assess the uninhibited rates and the background substrate hydrolysis rates, respectively.

Factor XIIa = experiment: Specificity assay, Factor XIIa; type: biochemical, human; settings: for Percent Activity of Factor XIIa: 100 nM inhibitor, ~1 h, 10 nM enzyme
Experimental: as §1

TF·FVIIa = experiment: Specificity assay, TF·FVIIa; type: biochemical, human; settings: for Percent Activity of TF/Factor VIIa: 100 nM inhibitor, ~1 h, 12.0 nM enzyme
Experimental: as §1

single chain t-PA = experiment: Specificity assay, single chain t-PA; type: biochemical, human; settings: for Percent Activity of t-PA: 100 nM inhibitor, ~1 h, 15 nM enzyme
Experimental: as §1

HLE = experiment: Specificity assay, HLE; type: biochemical, human; settings: for Percent Activity of HLE: 100 nM inhibitor, ~1 h, 17 nM enzyme
Experimental: as §1

activated protein C = experiment: Specificity assay, activated protein C; type: biochemical, human; settings: for Percent Activity of Activated protein C: 100 nM inhibitor, ~1 h, 4.3 nM enzyme
Experimental: as §1

plasma kallikrein = experiment: Specificity assay, plasma kallikrein; type: biochemical, human; settings: for Percent Activity of Kallikrein: 100 nM inhibitor, ~1 h, 10 nM enzyme
Experimental: as §1

plasmin = experiment: Specificity assay, plasmin; type: biochemical, human; settings: for Percent Activity of Plasmin: 100 nM inhibitor, ~1 h, 15 nM enzyme
Experimental: as §1

FXIa = experiment: Specificity assay, FXIa; type: biochemical, human; settings: for Percent Activity of Factor XIa: 100 nM inhibitor, ~1 h, 1.2 nM enzyme
Experimental: as §1

FXa [2] = experiment: FXa association rate constant; type: biochemical, human
Experimental: Determination of FXa association rate constants The association rate of ecotin with FXa was determined as follows. At reference time zero, ecotin (7 nM final concentration) was added to FXa (5 nM final concentration) and TNCT buffer in a total volume of 3.0 ml. Immediately thereafter, 150 μl aliquots were removed at intervals over a period of 10 min and added to microtiter wells containing 50 μl 5 mM Spectrozyme fXa. The absorbance of the wells was monitored at 405 nm. Initial rates were determined for each well using the initial linear portion of each data set. The concentration of free enzyme versus time was plotted and the curves fitted to equation 4; values for kon were determined by nonlinear regression analysis.
The rate of association of a reversible inhibitor with enzyme is given by equation 2: [formula] Since measurements were made during the initial phase of the reaction, where dissociation of the E·I complex is negligible, the second term of equation 2 can be ignored. Therefore the rate of association is given by equation 3: [formula] […] The association rate constant for ecotin with FXa was determined by measuring free enzyme as a function of time and fitting the data to equation (4) by nonlinear regression analysis. A value for kon =(1.35±0.08)×10^6 M^-1 s^-1 was calculated for ecotin with FXa (FIG. 4A); kon values for ecotin mutants are shown in Table I.

normal human plasma = experiment: Activated partial thromboplastin time (APTT) clotting assay; type: biochemical; settings: ellagic acid
Experimental: For the activated partial thromboplastin time (APTT) assays, the activation time was set at 120 sec and acquisition time at 300 to 600 sec depending on the expected outcome of the assay. Citrated normal human plasma and inhibitor were incubated together. The sample (plasma and inhibitor) and activator (Instrumentation Laboratories Ellagic acid/Phospholipid mix Test Reagent) were automatically pipetted and incubated together for 2 min at 37° C., then CaCl2 was added and clotting time determined by means of optical assessment. The total incubation time of inhibitor with plasma was ca. 3 min before addition of activator, and 5 min before addition of CaCl2. Final concentrations were 0.57 nM to 5.7 μM ecotin, 15.3 ug protein/ml 293 cell membranes, 8.3 uM ellagic acid, 8.3 mM CaCl2, and 33.3% plasma in a total volume of 162 μl.

[3] = text statement, listed as ecotin

| Substance | Percent Activity of Factor Xa (FXa [1]) | Percent Activity of Factor XIIa (Factor XIIa) | inhibition of FXIIa, in words (Factor XIIa; text statement) | Percent Activity of TF/Factor VIIa (TF·FVIIa) | inhibition of TF·FVIIa, in words (TF·FVIIa; text statement) | Percent Activity of t-PA (single chain t-PA) | inhibition of t-PA, in words (single chain t-PA; text statement) | Percent Activity of HLE (HLE) | inhibition of HLE, in words (HLE; text statement) | Percent Activity of Activated protein C (activated protein C) | inhibition of activated protein C, in words (activated protein C; text statement) | Percent Activity of Kallikrein (plasma kallikrein) | inhibition of plasma kallikrein, in words (plasma kallikrein; text statement) | Percent Activity of Plasmin (plasmin) | inhibition of plasmin, in words (plasmin; text statement) | Percent Activity of Factor XIa (FXIa) | inhibition of FXIa, in words (FXIa; text statement) | also measured |
| --- | --- | --- | --- | --- | --- | --- | --- | --- | --- | --- | --- | --- | --- | --- | --- | --- | --- | --- |
| M84K | 2% | 0% | still potently inhibited | 92% | Neither ecotin, the M84R or M84K mutants inhibited | 100% | Neither ecotin, the M84R or M84K mutants inhibited | 85% | effectively diminished inhibition; also recorded: no longer inhibited | 65% | significant inhibition | 2% | still potently inhibited | 9% | significant inhibition | 12% | significant inhibition | inhibition of FXIIa, in words (Factor XIIa; listed as P1 Lys mutant): significantly inhibited; inhibition of TF·FVIIa, in words (TF·FVIIa; listed as P1 Lys mutant): did not inhibit; inhibition of t-PA, in words (single chain t-PA; listed as P1 Lys mutant): did not inhibit; inhibition of HLE, in words (HLE; listed as P1 Lys mutant): did not inhibit; inhibition of activated protein C, in words (activated protein C; listed as P1 Lys mutant): significantly inhibited; inhibition of plasma kallikrein, in words (plasma kallikrein; listed as P1 Lys mutant): significantly inhibited; inhibition of plasmin, in words (plasmin; listed as P1 Lys mutant): significantly inhibited; inhibition of FXIa, in words (FXIa; listed as P1 Lys mutant): significantly inhibited |
| Ecotin: E. coli periplasmic protein having the 142 amino acid residue sequence reported by McGrath et al.; recombinant, P1 Met84 | 0% | 0% | potently inhibited | 99% | did not effectively inhibit | 100% | did not effectively inhibit | 0% | potently inhibited | 99% | did not effectively inhibit | 0% | potently inhibited | 100% | did not effectively inhibit | 79% | did not effectively inhibit | time for complete inhibition of FXa (FXa [2]; ca. 500 nM ecotin, maximum FXa concentration in blood ca. 200 nM): approximately 7.4 sec; association rate constant (kon) with FXa (FXa [2]; full power of ten printed): 1.35e+06 M⁻¹ s⁻¹; concentration causing 10-fold prolongation of clotting time, APTT (normal human plasma): ~0.3 μM; concentration causing 10-fold prolongation of clotting time, APTT (normal human plasma; listed as Wild type ecotin): ~ 0.3 μM; inhibition of TF·FVIIa, in words (TF·FVIIa; [3]): little or no inhibition; also recorded: No inhibition; also recorded: does not inhibit; inhibition of t-PA, in words (single chain t-PA; [3]): little or no inhibition; also recorded: No inhibition; inhibition of activated protein C, in words (activated protein C; [3]): little or no inhibition; inhibition of plasmin, in words (plasmin; [3]): little or no inhibition; inhibition of FXIa, in words (FXIa; [3]): little or no inhibition |
| M84R | 1% | 1% | still potently inhibited | 87% | Neither ecotin, the M84R or M84K mutants inhibited | 100% | Neither ecotin, the M84R or M84K mutants inhibited | 88% | effectively diminished inhibition; also recorded: no longer inhibited | 50% | significant inhibition | 1% | still potently inhibited | 10% | significant inhibition | 5% | significant inhibition | inhibition of FXIIa, in words (Factor XIIa; listed as P1 Arg mutant): significantly inhibited; inhibition of TF·FVIIa, in words (TF·FVIIa; listed as P1 Arg mutant): did not inhibit; inhibition of t-PA, in words (single chain t-PA; listed as P1 Arg mutant): did not inhibit; inhibition of HLE, in words (HLE; listed as P1 Arg mutant): did not inhibit; inhibition of activated protein C, in words (activated protein C; listed as P1 Arg mutant): significantly inhibited; inhibition of plasma kallikrein, in words (plasma kallikrein; listed as P1 Arg mutant): significantly inhibited; inhibition of plasmin, in words (plasmin; listed as P1 Arg mutant): significantly inhibited; inhibition of FXIa, in words (FXIa; listed as P1 Arg mutant): significantly inhibited |
